In ChEMBL document CHEMBL5726462, “Substituted quinolines as modulators of sodium channels” (2017):
pIC50: −log10 of the molar value.

assay: Electrophysiology Assays: Patch clamp electrophysiology was used to assess the efficacy and selectivity of sodium channel blockers in dorsal root ganglion neurons. Rat neurons were isolated from the dorsal root ganglions and maintained in culture for 2 to 10 days in the presence of NGF (50 ng/ml) (culture media consisted of NeurobasalA supplemented with B27, glutamine and antibiotics). Small diameter neurons (nociceptors, 8-12 μm in diameter) were visually identified and probed with fine tip glass electrodes connected to an amplifier (Axon Instruments). The voltage clamp mode was used to assess the compound's IC50 holding the cells at −60 mV. In addition, the current clamp mode was employed to test the efficacy of the compounds in blocking action potential generation in response to current injections. The results of these experiments contributed to the definition of the efficacy profile of the compounds.

Point of comparison: COc1cc(F)ccc1Oc1nc2ccccc2nc1C(=O)Nc1nnn[nH]1, pIC50 5.66. Against it:
- O=C(O)c1ccc(NC(=O)c2cc3ccccc3nc2Oc2ccc(F)cc2F)cn1 — 0.93 log units higher, 6.59
- NS(=O)(=O)c1cccc(NC(=O)c2cc3ccccc3nc2Oc2ccccc2OC(F)F)c1 — 1.96 log units higher, 7.62
- O=C(O)c1ccc(NC(=O)c2cc3ccccc3nc2Oc2ccc(F)cc2F)cc1 — 0.90 log units higher, 6.56
- COc1ccc(Oc2nc3ccccc3cc2C(=O)Nc2ccc(C(=O)O)cc2)c(OC)c1 — 0.60 log units higher, 6.26
- O=C(O)c1ccc(NC(=O)c2cc3ccccc3nc2Oc2ccc(F)cc2Cl)cn1 — 1.36 log units higher, 7.02
- O=C(O)c1ccc(NC(=O)c2cc3ccccc3nc2Oc2ccccc2OC(F)F)cc1 — 0.35 log units higher, 6.01
- Cc1cc(F)ccc1Oc1nc2ccccc2cc1C(=O)Nc1ccc(C(=O)O)cc1 — 0.84 log units higher, 6.50
